Where two headings read alike, the source gives them in different places. Blank lines part the entries; values can stand above or below the compound they belong to.
Key:
[1] = molecular target: T1, mushroom tyrosinase (Agaricus bisporus, UniProt C7FF04); test: Mushroom tyrosinase inhibitory assay, L-DOPA oxidation (diphenolase activity); assay type: biochemical; parameters: purchased Sigma-Aldrich Co. (St. Louis, MO, USA); conditions: L-DOPA substrate (diphenolase), 25 °C, pH 6.5, mean ± SEM of triplicate
Method: (§1) Briefly, 10 µL of a specified concentration of each sample solution (1–500 µg/mL) in 10% dimethyl sulfoxide and 20 µL of mushroom tyrosinase (1000 Units/mL) in a 50 mM phosphate buffer (pH 6.5) were added to 170 µL of an assay mixture in a 96-well microplate. […] The reaction mixtures were incubated at 25 °C for 15 s. The absorbance of the mixture at 490 nm was measured using a microplate reader. […] One unit (U) of enzymatic activity referred to the amount of an enzyme capable of converting 1 µM of the L-tyrosine/L-DOPA reaction mixture within 1 min at 280 nm under the specific conditions (25 °C, optimum conditions).

[2] = molecular target: T1, mushroom tyrosinase; test: Mushroom tyrosinase inhibitory assay, L-tyrosine oxidation (monophenolase activity); assay type: biochemical; parameters: purchased Sigma-Aldrich Co. (St. Louis, MO, USA)
Method: as §1

[3] = test system: tyrosinase; conditions: cited from earlier work
[4] = molecular target: mushroom tyrosinase; parameters: method as in ref 13 (Chaita et al.); conditions: L-DOPA substrate; ref 13 (Chaita et al.); read-out: IC50, mushroom tyrosinase via the L-DOPA pathway; cited from earlier work
[5] = molecular target: mushroom tyrosinase; parameters: method as in ref 12 (Zheng et al.); conditions: L-tyrosine substrate; ref 12 (Zheng et al.); read-out: IC50, L-tyrosine oxidation (monophenolase); cited from earlier work
[6] = molecular target: T1, mushroom tyrosinase; test: Enzyme kinetic analysis with tyrosinase (Lineweaver-Burk and Dixon plots, L-tyrosine substrate); assay type: biochemical; conditions: for Inhibition Mode: Lineweaver–Burk plot, L-tyrosine substrate (monophenolase)
Method: Kinetic analysis was employed to verify the inhibitory activity of the active compounds and identify the type of inhibition. KG and MG were potent tyrosinase inhibitors as analyzed by Lineweaver–Burk and Dixon plots (Figure 3 and Figure 4). Different concentrations of the substrate (L-tyrosine, 1.0, 0.5, and 0.25 mM) along with the various concentrations of KG (10, 50, and 100 µM) and MG ([…]) were analyzed. […] The Ki values represent the concentrations required to form an enzyme inhibitor complex, so inhibitors with lower Ki values indicate greater tyrosinase inhibition activity for the development of prophylactic and therapeutic agents.
We observed the sample activity by decreasing the L-tyrosine (1.0, 0.5, and 0.25 mM) substrate concentration to determine the tyrosinase inhibitory mechanism. The reaction mixture consisted of a 20 µL test sample at the following test concentrations: 1.6, 8, and 16 µM for MG; 10, 50, and 100 µM for KG. Tyrosinase inhibition was determined at various concentrations of L-tyrosine substrate (1.0, 0.5, and 0.25 mM) in the absence or presence of the test compound concentrations (1.6, 8, and 16 µM for MG; 10, 50, and 100 µM for KG) using Lineweaver-Burk double reciprocal plots that determine enzyme kinetic parameters including Km and Vmax. The enzymatic procedures consisted of the previously described tyrosinase assay methods. The inhibition constant (Ki) was determined from the interpretation of Dixon plots.

[7] = test system: B16F10 cells; parameters: method as in PMID 25819153; conditions: 150 µM; cited from earlier work
[8] = read-out: IC50 (μM) Value L-DOPA
[9] = L-tyrosine substrate (monophenolase), 25 °C, pH 6.5, mean ± SEM of triplicate, read-out: IC50 (μM) Value L-Tyrosine

T1 sequence (C7FF04 2-392): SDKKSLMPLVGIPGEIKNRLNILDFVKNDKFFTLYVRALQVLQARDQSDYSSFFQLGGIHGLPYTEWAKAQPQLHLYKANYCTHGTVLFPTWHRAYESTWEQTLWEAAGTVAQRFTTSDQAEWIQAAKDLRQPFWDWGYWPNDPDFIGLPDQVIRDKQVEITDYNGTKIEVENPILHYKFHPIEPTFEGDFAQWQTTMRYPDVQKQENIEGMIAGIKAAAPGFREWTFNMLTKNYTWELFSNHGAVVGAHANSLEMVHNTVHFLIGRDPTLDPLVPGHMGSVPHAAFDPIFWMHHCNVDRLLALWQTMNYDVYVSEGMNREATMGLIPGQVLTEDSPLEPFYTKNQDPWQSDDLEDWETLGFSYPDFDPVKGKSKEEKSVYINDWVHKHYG

- IC50 [1, 8]: > 1000 µM
- IC50 [2, 9]: > 1000 µM
SMILES: CC1=CCCCC1 [1-Methyl-1-cyclohexene, reference compound]

SMILES: Cc1cc2c3c(c1)-c1c(O)cc(-c4cc5ccc(O)cc5o4)cc1OC3(c1ccc(O)cc1O)Oc1cc(O)ccc1-2 (centres unmarked) [Albanol B]
- IC50 (μM) Value L-DOPA [1]: inactive
- IC50 [1, 8]: > 350 µM
- IC50 (μM) Value L-Tyrosine ([2]; L-tyrosine substrate (monophenolase), 25 °C, pH 6.5, mean ± SEM of triplicate): inactive
- IC50 [2, 9]: > 350 µM

SMILES: O=C(O)/C=C/c1ccccc1 [Cinnamic acid]
- inhibition type toward tyrosinase ([3]; interacted with secondary binding sites when catalytic pocket occupied with tropolone, ref 34 (Hassani et al.)): mixed type inhibitor

SMILES: O=c1cc(CO)occ1O [Kojic acid]
- inhibition type toward tyrosinase [3]: selective competitive inhibitor

SMILES: CC(C)=CCc1c(-c2ccc(O)cc2O)oc2c(C3C=C(C)CC(c4ccc(O)cc4O)C3C(=O)c3ccc(O)cc3O)c(O)cc(O)c2c1=O (centres unmarked) [Kuwanon G]
- IC50 [4]: 27.2 µM
- IC50 ([1]; IC50 (μM) Value L-DOPA): 44 µM
- IC50 [2]: 67.6 ± 2.11 µM
- IC50 [5]: > 200 µM
- Ki [6]: 18.7 µM
- Inhibition Mode [6]: Competitive

- IC50 [1, 8]: 106 µM
- IC50 [2, 9]: 6.35 ± 0.45 µM
- Ki ([6]; Dixon plot, L-tyrosine substrate, read-out: Inhibition Constant (Ki)): 5.19 µM
- Inhibition Mode [6]: Competitive
SMILES: CC1=C[C@H]2c3c(O)cc(-c4cc5ccc(O)cc5o4)cc3O[C@@]3(c4ccc(O)cc4O)Oc4cc(O)ccc4[C@H](C1)[C@@H]23 [Mulberrofuran G]
- IC50 [5]: 17.5 µM

SMILES: C=C1CC/C=C(\C)CC[C@@H]2[C@@H]1CC2(C)C [β-caryophyllene]
- intracellular tyrosinase activity [7]: decreased

— publication PMC6099663, “Structure–Activity Relationship of the Tyrosinase Inhibitors Kuwanon G, Mulberrofuran G, and Albanol B from Morus Species: A Kinetics and Molecular Docking Study” (Molecules : A Journal of Synthetic Chemistry and Natural …, 2018)
